This assay concerns Naja Naja Snake Venom PLA2 enzyme. The experiment in a line: In vitro fluorometric PLA2 inhibition assay. Type of assay: biochemical. Conditions: 0.1 mg/ml. As to the method:
The reaction of the PLA2 enzyme and the PLA2 enzyme substrate 2-(6-(7-nitrobenz-2-oxa-1,3diazol-4-yl)amino) hexanoyl-1-hexadecanoyl-sn-glycero-3-phosphocholine (NHGP) yields a product, which can be detected using a fluorometer. […] indicates inhibition of the PLA2 enzyme.
Compound XXII and Compound XXV were solubilized and diluted in D-PBS, and tested at final concentrations of […], 0.125, 0.25, 0.5 and 1 mg/ml. […] 1 mM NHGP was diluted in D-PBS, for a final concentration of 1 μM. The positive control, Mefenamic Acid (Sigma, M-4267), was tested at a final concentration of 0.1 mg/ml. The PLA2 enzyme is derived from the Naja Naja Snake Venom (Sigma, P6139) and tested at a final concentration of 5 Units/ml. The reaction was carried out in 200 μl solution and initiated by addition of substrate. Fluorescence was read immediately and then every minute for 30 minutes for a total of 30 readings. The fluorometer was set as follows: Excitation 450/50; Emission 530/25; Gain 50.

With `Cc1cccc(Nc2ccccc2C(=O)O)c1C` [mefenamic acid, Mefenamic Acid], the “inhibition of the PLA2 enzyme” value came out at 41%.
